{"source": "BindingDB's records for PubMed 32485533", "about": "(Isf College of Pharmacy, 2020)", "experiment": "Inhibition of human recombinant sPLA2-V at 1 uM", "data": [{"smiles": "COc1ccc(-c2nc3c(C(N)=O)cccc3[nH]2)cc1", "note": "[2-(4-methoxyphenyl)-1H-1,3-benzodiazole-4-carboxamide]", "values": [{"measurement": "IC50", "result": 3.22, "unit": "µM"}]}]}
